Experiment: xn = mol fraction of the nth substance listed
Conditions: 101 kPa, Liquid; for viscosity: Capillary tube (Ostwald / Ubbelohde) method

CCOC(=O)OCC [diethyl carbonate] + Cc1ccccc1
Conditions | mass density [kg/m3] | viscosity [mPa·s]
298.15 K, x1 = 0.1014 | 874.5 | 0.573
298.15 K, x1 = 0.1984 | 885.94 | 0.59
298.15 K, x1 = 0.3006 | 897.67 | 0.608
298.15 K, x1 = 0.4024 | 908.97 | 0.627
298.15 K, x1 = 0.5212 | 921.72 | 0.649
298.15 K, x1 = 0.6022 | 930.18 | 0.664
298.15 K, x1 = 0.7016 | 940.28 | 0.684
298.15 K, x1 = 0.7995 | 949.95 | 0.702
298.15 K, x1 = 0.8975 | 959.36 | 0.722
298.15 K, x1 = 1 | 968.97 | 0.746
303.15 K, x1 = 0.1014 | 870.46 | 0.542
303.15 K, x1 = 0.1984 | 881.62 | 0.557
303.15 K, x1 = 0.3006 | 893.06 | 0.573
303.15 K, x1 = 0.4024 | 904.06 | 0.59
303.15 K, x1 = 0.5212 | 916.47 | 0.609
303.15 K, x1 = 0.6022 | 924.71 | 0.622
303.15 K, x1 = 0.7016 | 934.52 | 0.639
303.15 K, x1 = 0.7995 | 943.93 | 0.657
303.15 K, x1 = 0.8975 | 953.08 | 0.674
303.15 K, x1 = 1 | 962.39 | 0.695
313.15 K, x1 = 0.1014 | 860.95 | 0.484
313.15 K, x1 = 0.1984 | 872.04 | 0.497
313.15 K, x1 = 0.3006 | 883.39 | 0.51
313.15 K, x1 = 0.4024 | 894.33 | 0.523
313.15 K, x1 = 0.5212 | 906.66 | 0.539
313.15 K, x1 = 0.6022 | 914.85 | 0.55
313.15 K, x1 = 0.7016 | 924.6 | 0.564
313.15 K, x1 = 0.7995 | 933.95 | 0.579
313.15 K, x1 = 0.8975 | 943.04 | 0.593
313.15 K, x1 = 1 | 952.32 | 0.61
323.15 K, x1 = 0.1014 | 850.49 | 0.434
323.15 K, x1 = 0.1984 | 861.33 | 0.445
323.15 K, x1 = 0.3006 | 872.43 | 0.457
323.15 K, x1 = 0.4024 | 883.11 | 0.468
323.15 K, x1 = 0.5212 | 895.17 | 0.481
323.15 K, x1 = 0.6022 | 903.16 | 0.491
323.15 K, x1 = 0.7016 | 912.68 | 0.503
323.15 K, x1 = 0.7995 | 921.81 | 0.515
323.15 K, x1 = 0.8975 | 930.72 | 0.527
323.15 K, x1 = 1 | 939.78 | 0.541
333.15 K, x1 = 0.1014 | 841.39 | 0.394
333.15 K, x1 = 0.1984 | 852.01 | 0.403
333.15 K, x1 = 0.3006 | 862.85 | 0.413
333.15 K, x1 = 0.4024 | 873.3 | 0.422
333.15 K, x1 = 0.5212 | 885.09 | 0.434
333.15 K, x1 = 0.6022 | 892.88 | 0.442
333.15 K, x1 = 0.7016 | 902.2 | 0.452
333.15 K, x1 = 0.7995 | 911.11 | 0.461
333.15 K, x1 = 0.8975 | 919.81 | 0.471
333.15 K, x1 = 1 | 928.69 | 0.483
343.15 K, x1 = 0.1014 | 831.46 | 0.358
343.15 K, x1 = 0.1984 | 841.79 | 0.365
343.15 K, x1 = 0.3006 | 852.32 | 0.373
343.15 K, x1 = 0.4024 | 862.48 | 0.382
343.15 K, x1 = 0.5212 | 873.94 | 0.391
343.15 K, x1 = 0.6022 | 881.51 | 0.398
343.15 K, x1 = 0.7016 | 890.57 | 0.407
343.15 K, x1 = 0.7995 | 899.24 | 0.415
343.15 K, x1 = 0.8975 | 907.69 | 0.425
343.15 K, x1 = 1 | 916.33 | 0.435
353.15 K, x1 = 0.1014 | 821.53 | 0.318
353.15 K, x1 = 0.1984 | 831.67 | 0.326
353.15 K, x1 = 0.3006 | 842.02 | 0.334
353.15 K, x1 = 0.4024 | 852.02 | 0.342
353.15 K, x1 = 0.5212 | 863.29 | 0.352
353.15 K, x1 = 0.6022 | 870.74 | 0.358
353.15 K, x1 = 0.7016 | 879.66 | 0.367
353.15 K, x1 = 0.7995 | 888.2 | 0.375
353.15 K, x1 = 0.8975 | 896.52 | 0.384
353.15 K, x1 = 1 | 905.02 | 0.393
363.15 K, x1 = 0.1014 | 808.79 | 0.293
363.15 K, x1 = 0.1984 | 819.07 | 0.3
363.15 K, x1 = 0.3006 | 829.57 | 0.306
363.15 K, x1 = 0.4024 | 839.71 | 0.313
363.15 K, x1 = 0.5212 | 851.16 | 0.322
363.15 K, x1 = 0.6022 | 858.77 | 0.328
363.15 K, x1 = 0.7016 | 867.85 | 0.336
363.15 K, x1 = 0.7995 | 876.55 | 0.343
363.15 K, x1 = 0.8975 | 885.04 | 0.351
363.15 K, x1 = 1 | 893.71 | 0.358

— the NIST ThermoML archive (doi:10.1021/je050414d)
